# Literature values as cited in patent US20100247552A1, “PAK MODULATORS” (MASSACHUSETTS INSTITUTE OF TECHNOLOGY, priority 2006, published 2010).
# How the values were obtained:
# PAK5 [1] = target: T1, PAK5 (Homo sapiens, UniProt Q9P286); conditions: 10 μM compound
# PAK5 [2] = target: T1, PAK5
# PAK4 [3] = target: T2, PAK4 (Homo sapiens, UniProt O96013); conditions: 10 μM compound
# PAK4 [4] = target: T2, PAK4
# PAK6 [5] = target: T3, PAK6 (Homo sapiens, UniProt Q9NQU5)
# PAK6 [6] = target: T3, PAK6; conditions: 10 μM compound
# [7] = solvents
# [8] = test system: human cancer cell migration; conditions: 40 μM; interferes with formation of active Cdc42/Rac1 and PAK complex
# PAK = conditions: probably competitive inhibition of ATP binding; units printed within the value (nM and μM); read-out: IC50 for inhibition of PAK kinase activity
# T3 sequence (Q9NQU5 whole entry): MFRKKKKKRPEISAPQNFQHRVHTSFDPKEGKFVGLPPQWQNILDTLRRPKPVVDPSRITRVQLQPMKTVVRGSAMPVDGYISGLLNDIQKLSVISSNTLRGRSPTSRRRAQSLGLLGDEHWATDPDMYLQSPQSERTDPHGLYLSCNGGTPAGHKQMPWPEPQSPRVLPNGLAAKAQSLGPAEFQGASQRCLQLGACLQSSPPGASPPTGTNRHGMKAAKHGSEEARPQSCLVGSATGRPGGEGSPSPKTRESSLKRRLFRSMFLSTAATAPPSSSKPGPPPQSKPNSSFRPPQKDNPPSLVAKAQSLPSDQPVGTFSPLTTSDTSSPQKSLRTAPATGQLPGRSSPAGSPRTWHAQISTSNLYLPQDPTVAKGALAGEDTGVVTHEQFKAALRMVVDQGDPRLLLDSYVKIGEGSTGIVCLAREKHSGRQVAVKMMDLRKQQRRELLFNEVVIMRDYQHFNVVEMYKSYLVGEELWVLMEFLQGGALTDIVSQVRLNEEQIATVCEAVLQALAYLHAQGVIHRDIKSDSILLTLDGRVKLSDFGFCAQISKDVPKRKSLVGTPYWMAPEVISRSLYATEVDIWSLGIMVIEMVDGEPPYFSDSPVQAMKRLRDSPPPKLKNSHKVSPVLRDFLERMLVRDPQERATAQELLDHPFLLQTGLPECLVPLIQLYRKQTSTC
# T2 sequence (O96013 291-591 limits assumed): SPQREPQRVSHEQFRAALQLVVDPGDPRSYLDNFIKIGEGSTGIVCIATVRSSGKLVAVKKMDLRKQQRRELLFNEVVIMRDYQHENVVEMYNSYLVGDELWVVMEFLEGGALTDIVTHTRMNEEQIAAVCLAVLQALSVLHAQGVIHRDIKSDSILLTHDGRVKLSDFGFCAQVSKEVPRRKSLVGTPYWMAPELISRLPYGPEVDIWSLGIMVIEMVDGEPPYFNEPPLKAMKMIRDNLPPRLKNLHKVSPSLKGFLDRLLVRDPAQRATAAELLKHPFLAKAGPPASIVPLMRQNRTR
# T1 sequence (Q9P286 whole entry): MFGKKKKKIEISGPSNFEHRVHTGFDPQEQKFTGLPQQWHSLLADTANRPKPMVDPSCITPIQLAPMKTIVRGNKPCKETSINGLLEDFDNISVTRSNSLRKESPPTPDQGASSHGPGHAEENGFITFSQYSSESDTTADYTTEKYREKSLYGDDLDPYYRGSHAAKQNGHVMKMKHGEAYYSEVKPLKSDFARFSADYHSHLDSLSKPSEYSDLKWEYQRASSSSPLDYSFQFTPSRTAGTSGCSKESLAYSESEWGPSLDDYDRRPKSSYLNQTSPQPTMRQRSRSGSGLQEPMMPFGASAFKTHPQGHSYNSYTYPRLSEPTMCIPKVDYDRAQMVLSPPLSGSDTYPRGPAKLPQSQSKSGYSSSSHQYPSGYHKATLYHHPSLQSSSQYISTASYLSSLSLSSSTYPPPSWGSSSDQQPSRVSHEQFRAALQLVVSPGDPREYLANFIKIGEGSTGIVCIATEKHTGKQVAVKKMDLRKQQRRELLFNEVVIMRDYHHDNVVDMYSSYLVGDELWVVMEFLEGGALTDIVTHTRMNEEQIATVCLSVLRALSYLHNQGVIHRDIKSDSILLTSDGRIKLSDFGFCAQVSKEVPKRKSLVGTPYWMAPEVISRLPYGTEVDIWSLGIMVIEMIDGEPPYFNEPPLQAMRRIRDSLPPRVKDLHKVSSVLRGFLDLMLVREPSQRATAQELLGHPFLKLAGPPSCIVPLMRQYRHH
Structure (SMILES),% Activity at 10 μM PAK5 (PAK5 [1]),Tm Shift PAK5 (PAK5 [2]),% Activity at 10 μM PAK4 (PAK4 [3]),Tm Shift PAK4 (PAK4 [4]),Tm Shift PAK6 (PAK6 [5]),% Activity at 10 μM PAK6 (PAK6 [6]),Solubility [7],Effect on human cancer cell migration [8],IC50 (PAK)
Nc1nc(Nc2ccc(S(N)(=O)=O)cc2)nn1C(=S)Nc1c(F)cccc1F [Cdk 1/2 Inhibitor III],7.0%,5.6 ± 0.3 °C,62%,6.5 ± 0.2 °C,5.6 ± 0.8 °C,18%,,,
CCn1cnc2c(Nc3cccc(Cl)c3)nc(NC3CCCCC3N)nc21 (stereo not drawn) [Cdkl Inhibitor],12%,7.1 ± 0.3 °C,56%,7.0 ± 1.5 °C,7.0 ± 0.3 °C,23%,,,
"Cc1cc(O)c2c(c1)C(=O)c1cc(O)cc(O)c1C2=O [Emodin, 1,3,8-Tri-hydroxy-6-methyl-anthra-quinone]",,,,,,,"soluble in DMSO, ethanol, or 1 N dilute aqueous ammonia",inhibits human cancer cell migration,
C[C@]12OC(C[C@]1(O)C(=O)O)n1c3ccccc3c3c4c(c5c6ccccc6n2c5c31)CNC4=O [K252a],22%,5.9 ± 0.3 °C,16%,4.5 ± 0.3 °C,8.6 ± 1.0 °C,16%,,,
"NCC(=O)Nc1ccc(-n2nc(C(F)(F)F)cc2-c2ccc3c(ccc4ccccc43)c2)cc1 [OSU-03012, 2-amino-N-{4-[5-(2-phenanthrenyl)-3-(trifluoromethyl)-1H-pyrazol-1-yl]-phenyl}acetamide]",,,,,,,"soluble in organic solvents such as DMSO, ethanol, and DMF",,500 to 1000 nM
CCN(CC)CCNC(=O)c1c(C)[nH]c(/C=C2\C(=O)Nc3ccc(Cl)cc32)c1C [SU11652],43%,5.3 ± 0.2 °C,34%,6.4 ± 1.2 °C,5.3 ± 0.3 °C,75%,,,
CN[C@@H]1C[C@H]2O[C@@](C)([C@@H]1OC)n1c3ccccc3c3c4c(c5c6ccccc6n2c5c31)C(=O)NC4 [Staurosporine],0%,,,,,0%,,,
